Laboratory results taken from paper PMC12720774, “Detergents alter the stability and lipid binding properties of the CD1d immunoreceptor” (Protein Science : A Publication of the Protein Society, 2025).
Where “and” joins values, the source holds several entries; their conditions need not be identical. Identical values can stand only once. Like-named read-outs stand apart in the source and are kept apart here.

Assays:
[1] = molecular target: T1, AF647‐labeled hCD1d (Homo sapiens, UniProt P15813+P61769); experiment: Microscale thermophoresis (MST) binding assay
T1 construct: TEV protease cleavage site ENLYFQS (C); BirA biotinylation site (C); His7 (C); made in house; host or cells: TurboCHO cells (GenScript)
T1 sequence (P61769+P15813 fused): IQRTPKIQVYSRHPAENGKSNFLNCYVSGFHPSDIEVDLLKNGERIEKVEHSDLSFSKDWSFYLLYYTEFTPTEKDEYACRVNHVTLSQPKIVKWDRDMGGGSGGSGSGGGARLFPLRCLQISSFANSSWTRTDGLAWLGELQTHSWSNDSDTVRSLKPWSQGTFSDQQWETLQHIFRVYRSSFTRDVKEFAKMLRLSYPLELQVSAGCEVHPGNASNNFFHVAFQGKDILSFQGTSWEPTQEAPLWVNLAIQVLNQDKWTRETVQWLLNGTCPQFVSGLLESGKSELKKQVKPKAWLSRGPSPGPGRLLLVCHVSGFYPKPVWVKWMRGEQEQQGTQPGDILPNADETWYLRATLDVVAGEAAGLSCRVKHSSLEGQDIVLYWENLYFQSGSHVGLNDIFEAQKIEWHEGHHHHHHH
From the text: The experimental limitations of ITF, such as low instrument sensitivity, high sample consumption, signal overlap with some ligands, and low throughput (Fossum et al., [2023]), made it necessary to employ alternative, complementary assays to quantify detergent binding to hCD1d. […] MST measures the diffusion of fluorescent molecules in response to microscopic temperature gradients (Seidel et al., [2013]). When a protein forms a complex with a ligand, changes in hydrodynamic properties, charge, or solvation energy alter its thermophoretic behavior, allowing detection of binding events. To perform MST experiments, Alexa Fluor 647 (AF647) dye was covalently attached to the primary amines of hCD1d via standard N‐hydroxysuccinimide coupling chemistry (Anderson et al., [1964]). The concentration of AF647‐hCD1d was kept constant, and the change in MST signal was measured as a function of increasing detergent concentration (Figure S3). Like ITF, any lipid or detergent that destabilizes CD1 can also alter the MST signal since unfolding changes the protein's Stokes radius and its thermophoretic behavior. […] This is why we compare MST results with ITF and nanoDSF, as described below.
For MST, hCD1d was fluorescently labeled with AF647‐NHS Ester (Invitrogen #A20006). Briefly, a 10 mM stock of AF647‐NHS was prepared in anhydrous DMSO. Then, 100 μL of 50 μM hCD1d in 1X PBS pH 7.4 was mixed with 1 μL of 10 mM AF647‐NHS (1:2 molar ratio of protein: dye). The mixture was allowed to react for 1 h in the dark at 25°C. Unreacted dye was removed from the protein–dye conjugate by performing size exclusion chromatography in the dark with a Superdex 200 Increase 10/300 GL column at a flow rate of 0.5 mL/min in SEC buffer (100 mM NaCl, 20 mM sodium phosphate, pH 7.2). The degree of labeling was determined by a NanoDrop spectrophotometer at A647 nm (dye absorbance) and A280 nm (hCD1d absorbance). The degree of labeling was determined from the ratio of dye concentration to protein concentration. The degree of labeling was ~75%.
MST experiments were performed using a Monolith NT.115 instrument (NanoTemper Technologies) using Monolith standard capillaries and the red excitation laser setup. The following settings were applied for all MST experiments: excitation power: 30%–50%, MST power: medium, before MST time: 3 s, MST on time (IR laser): 20 seconds, and after MST time: 1 s. MST measurements were analyzed using the Monolith Affinity Analysis software v2.3 and exported for plotting in GraphPad Prism v10.1. Three replicates were performed, and data are presented as the mean ± standard deviation (n = 3).
MST measurements of 100 nM AF647‐hCD1d were acquired in the absence and presence of detergents in 1X PBS pH 7.4 at 25°C. Prior to data acquisition, hCD1d and detergent or lipid samples were incubated at 37°C overnight (~12 h) to simulate in vitro and in vivo loading conditions. […] For 18:1 LPC experiments: MST data of 100 nM AF647‐hCD1d were acquired in the absence and presence of 18:1 LPC in 1X PBS pH 7.4 at 25°C.

[2] = molecular target: T2, recombinant human CD1d ectodomain/β2m complex (hCD1d) (Homo sapiens, UniProt P15813+P61769); experiment: Intrinsic tryptophan fluorescence (ITF) binding assay
T2 construct: TEV protease cleavage site ENLYFQS (C); BirA biotinylation site (C); His7 (C); made in house; host or cells: TurboCHO cells (GenScript)
T2 sequence (P61769+P15813 fused): as above
Protocol: For ITF assays, the concentration of hCD1d was kept constant, and intrinsic Trp fluorescence (excitation at 285 nm, emission at 335 nm) was measured as a function of increasing detergent concentration (Fossum et al., [2023]) (Figure S2). The change in relative fluorescence intensity (F − F 0/F 0) provides an indication of binding. […] This was due to limited detergent solubility and decreased hCD1d stability in the presence of a large excess of detergent (see below). […] SDS was the exception, for which Trp fluorescence of hCD1d decreased with added detergent. This could indicate a unique conformational change or destabilization of the protein.
ITF spectra were recorded from 300 to 500 nm using a Horiba FL3‐21 Fluorometer with the excitation wavelength of 285 nm and excitation/emission slits of 6.2 nm. Fluorescence spectra of 50 to 100 nM hCD1d were acquired in the absence and presence of detergents in 1X PBS pH 7.4 at 25°C. Prior to data acquisition, hCD1d and detergent or lipid samples were incubated at 37°C overnight (~12 h) to simulate in vitro and in vivo loading conditions. […] For 18:1 LPC experiments, fluorescence spectra of 100 nM hCD1d were acquired in the absence and presence of 18:1 LPC in 1X PBS pH 7.4 at 25°C. […] For all ITF experiments, the change in fluorescence signal (F − F 0/F 0) was determined at 335 nm. Three replicates were performed, and data are presented as the mean ± standard deviation (n = 3). K D values were fitted with non‐linear regression in GraphPad Prism v10.1.

[3] = approximate, ref Anatrace catalogue, cited from earlier work

Fnorm (rep 1-3) ([1]; 6.10352e-9 M detergent): 805.067 ‰ and 809.857 ‰ and 804.507 ‰
Fnorm (rep 1-3) ([1]; 1.2207e-8 M detergent): 806.458 ‰ and 809.351 ‰ and 805.026 ‰
Fnorm (rep 1-3) ([1]; 2.44141e-8 M detergent): 805.306 ‰ and 809.655 ‰ and 805.09 ‰
Fnorm (rep 1-3) ([1]; 4.88281e-8 M detergent): 807.116 ‰ and 806.609 ‰ and 806.1 ‰
Fnorm (rep 1-3) ([1]; 9.76563e-8 M detergent): 804.905 ‰ and 807.619 ‰ and 802.759 ‰
Fnorm (rep 1-3) ([1]; 1.95313e-7 M detergent): 804.684 ‰ and 807.405 ‰ and 803.094 ‰
Fnorm (rep 1-3) ([1]; 3.90625e-7 M detergent): 805.673 ‰ and 808.266 ‰ and 805.393 ‰
Fnorm (rep 1-3) ([1]; 7.8125e-7 M detergent): 808.872 ‰ and 807.822 ‰ and 807.967 ‰
Fnorm (rep 1-3) ([1]; 1.5625e-6 M detergent): 807.024 ‰ and 810.305 ‰ and 805.453 ‰
Fnorm (rep 1-3) ([1]; 3.125e-6 M detergent): 820.597 ‰ and 825.116 ‰ and 819.282 ‰
Fnorm (rep 1-3) ([1]; 6.25e-6 M detergent): 847.228 ‰ and 846.294 ‰ and 841.909 ‰
Fnorm (rep 1-3) ([1]; 1.25e-5 M detergent): 846.069 ‰ and 855.71 ‰ and 840.031 ‰
Fnorm (rep 1-3) ([1]; 2.5e-5 M detergent): 844.894 ‰ and 848.667 ‰ and 837.578 ‰
Fnorm (rep 1-3) ([1]; 5e-5 M detergent): 846.685 ‰ and 845.769 ‰ and 838.247 ‰
Fnorm (rep 1-3) ([1]; 0.0001 M detergent): 846.112 ‰ and 846.019 ‰ and 837.99 ‰
Fnorm (rep 1-3) ([1]; 0.0002 M detergent): 847.908 ‰ and 844.822 ‰ and 840.824 ‰
Kd ([1]; Figure 5B, detergent binding to hCD1d, read-out: MST - Kd (uM) average): 3.24 µM
Kd ([1]; detergent with 100 nM AF647‐labeled hCD1d, 25°C, apparent, read-out: K D (MST)): 3.2 ± 0.1 µM
F-F0/F0 (rep 1-3) ([2]; 6.1035e-9 M detergent): 0
F-F0/F0 (rep 1-3) ([2]; 7.8125e-7 M detergent): 0.1677 and 0.1078 and 0.1575
F-F0/F0 (rep 1-3) ([2]; 1.5625e-6 M detergent): 0.2804 and 0.1624 and 0.168
F-F0/F0 (rep 1-3) ([2]; 3.125e-6 M detergent): 0.6451 and 0.4306 and 0.4698
F-F0/F0 (rep 1-3) ([2]; 6.25e-6 M detergent): 0.9699 and 0.8276 and 0.7611
F-F0/F0 (rep 1-3) ([2]; 1.25e-5 M detergent): 0.863 and 0.6745 and 0.8384
F-F0/F0 (rep 1-3) ([2]; 2.5e-5 M detergent): 1.041 and 0.837 and 0.8177
F-F0/F0 (rep 1-3) ([2]; 5e-5 M detergent): 1.186 and 0.8687 and 0.9274
F-F0/F0 (rep 1-3) ([2]; 0.0001 M detergent): 1.309 and 1.057 and 0.8857
F-F0/F0 (rep 1-3) ([2]; 0.0002 M detergent): 1.646 and 1.2423 and 1.107
Kd ([2]; Figure 5A, detergent binding to hCD1d, read-out: ITF - Kd (uM) average): 4.59 µM
Kd ([2]; detergent with 100 nM hCD1d, 25°C, 1X PBS pH 7.4, apparent, read-out: K D (ITF)): 4.6 ± 0.9 µM
Substance: Tween 80
CMC [3]: 12 µM
CMC ([3]; weight/volume): 0.0016%
